Results reported in patent publication US9670203B2 (BeiGene, LTD., priority 2013, dated 2017).

Target: B-Raf (V600E) (Homo sapiens (Human), UniProt P15056, V600E)
Experiment: Raf IC50 assay, time-resolved fluorescence energy transfer, B-Raf (V600E)
Format: biochemical
Conditions: 0.1 mM ATP; read-out: IC50 (nM) B_Raf^V600E
Procedure: The enzyme was incubated with the compounds at room temperature for 60 minutes and the reactions were initiated by the addition of ATP and GST-MEK1. After reaction at room temperature for 60 minutes, an equal volume of stop/detection solution was added according to the manufacture's instruction (CisBio Bioassays). […] The IC50 for each compound was derived from fitting the dose-response % inhibition data to the four-parameter logistic model by Graphpad Prism software.

B-Raf (V600E), sequence (P15056 whole entry V600E): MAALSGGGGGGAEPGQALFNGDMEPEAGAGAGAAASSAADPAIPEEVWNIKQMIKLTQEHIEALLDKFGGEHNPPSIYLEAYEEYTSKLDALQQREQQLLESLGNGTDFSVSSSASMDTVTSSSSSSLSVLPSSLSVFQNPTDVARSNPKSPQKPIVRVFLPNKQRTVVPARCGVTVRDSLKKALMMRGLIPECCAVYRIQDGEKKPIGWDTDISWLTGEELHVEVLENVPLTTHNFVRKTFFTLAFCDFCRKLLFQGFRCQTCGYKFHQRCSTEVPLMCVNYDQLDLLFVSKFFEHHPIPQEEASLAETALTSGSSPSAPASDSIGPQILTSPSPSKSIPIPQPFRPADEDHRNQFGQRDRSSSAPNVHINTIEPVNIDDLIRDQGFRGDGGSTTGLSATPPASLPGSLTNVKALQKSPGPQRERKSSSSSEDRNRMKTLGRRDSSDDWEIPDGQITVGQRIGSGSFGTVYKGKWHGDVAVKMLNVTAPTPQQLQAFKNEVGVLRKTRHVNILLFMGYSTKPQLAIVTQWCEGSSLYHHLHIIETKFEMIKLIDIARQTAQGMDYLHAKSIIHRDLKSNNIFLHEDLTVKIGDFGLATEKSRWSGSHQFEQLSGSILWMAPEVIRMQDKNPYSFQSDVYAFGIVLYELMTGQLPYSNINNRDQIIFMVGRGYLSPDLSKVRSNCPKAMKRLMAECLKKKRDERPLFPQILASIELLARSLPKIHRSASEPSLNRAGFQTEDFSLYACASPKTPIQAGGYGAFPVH

| SMILES | IC50 [nM] |
| --- | --- |
| COc1ccc(NC(=O)N[C@@H]2[C@H]3Oc4ccc(Oc5ccnc6c5CCC(=O)N6)cc4[C@@H]23)c(Cl)c1 [Compound 1.4] | 1.8 |
| COc1ccc(Cl)c(NC(=O)N[C@@H]2[C@H]3Oc4ccc(Oc5ccnc6c5CCC(=O)N6)cc4[C@@H]23)c1 [Compound 1.5] | 2.2 |
| O=C1CCc2c(Oc3ccc4c(c3)[C@H]3[C@H](NC(=O)Nc5cc(Br)ccc5Cl)[C@H]3O4)ccnc2N1 [Compound 1.8] | 8.7 |
| O=C1CCc2c(Oc3ccc4c(c3)[C@H]3[C@H](NC(=O)Nc5ccc(Br)cc5Cl)[C@H]3O4)ccnc2N1 [Compound 1.10] | 6.3 |
| O=C1CCc2c(Oc3ccc4c(c3)[C@H]3[C@H](NC(=O)Nc5cccc([N+](=O)[O-])c5)[C@H]3O4)ccnc2N1 [Compound 1.13] | 1.8 |
| COc1ccc(NC(=O)N[C@@H]2[C@H]3Oc4ccc(Oc5ccnc6c5CCC(=O)N6)cc4[C@@H]23)cc1OC [Compound 1.15] | 2.3 |
| O=C1CCc2c(Oc3ccc4c(c3)[C@H]3[C@H](NC(=O)Nc5ccc6c(c5)CCC6)[C@H]3O4)ccnc2N1 [Compound 1.16] | 2.6 |
| COc1cc(NC(=O)N[C@@H]2[C@H]3Oc4ccc(Oc5ccnc6c5CCC(=O)N6)cc4[C@@H]23)cc(OC)c1 [Compound 1.17] | 1.5 |
| CC(C)(C)c1ccc(NC(=O)N[C@@H]2[C@H]3Oc4ccc(Oc5ccnc6c5CCC(=O)N6)cc4[C@@H]23)cc1 [Compound 1.18] | 16 |
| CN(C)Cc1ccc(NC(=O)N[C@@H]2[C@H]3Oc4ccc(Oc5ccnc6c5CCC(=O)N6)cc4[C@@H]23)cc1 [Compound 1.26] | 2680 |
| COc1cc(NC(=O)N[C@@H]2[C@H]3Oc4ccc(Oc5ccnc6c5CCC(=O)N6)cc4[C@@H]23)c(Cl)cc1Cl [Compound 1.27] | 11 |
| O=C1CCc2c(Oc3ccc4c(c3)[C@H]3[C@H](NC(=O)Nc5ccncn5)[C@H]3O4)ccnc2N1 [Compound 1.36] | 1.3 |
| O=C1CCc2c(Oc3ccc4c(c3)[C@H]3[C@H](NC(=O)Nc5cc(Cl)ccn5)[C@H]3O4)ccnc2N1 [Compound 1.37] | 0.85 |
| O=C1CCc2c(Oc3ccc4c(c3)[C@H]3[C@H](NC(=O)Nc5ccc(C(F)(F)F)cn5)[C@H]3O4)ccnc2N1 [Compound 1.38] | 4 |
| Cc1ccncc1NC(=O)N[C@@H]1[C@H]2Oc3ccc(Oc4ccnc5c4CCC(=O)N5)cc3[C@@H]12 [Compound 1.39] | 2.6 |
| COc1ccc(NC(=O)N[C@@H]2[C@H]3Oc4ccc(Oc5ccnc6c5CCC(=O)N6)cc4[C@@H]23)cc1 [Compound 1.50] | 0.8 |
| O=C1CCc2c(Oc3ccc4c(c3)[C@H]3[C@H](NC(=O)NCc5ccc(C(F)(F)F)cc5)[C@H]3O4)ccnc2N1 [Compound 1.56] | 158 |
| CN1CCN(Cc2ccc(NC(=O)N[C@@H]3[C@H]4Oc5ccc(Oc6ccnc7c6CCC(=O)N7)cc5[C@@H]34)cc2)CC1 [Compound 1.63] | > 5000 |
| O=C1CCc2c(Oc3ccc4c(c3)[C@H]3[C@H](NC(=O)Nc5ccc(C(F)(F)F)c(F)c5)[C@H]3O4)ccnc2N1 [Compound 1.64] | 27 |
| O=C1CCc2c(Oc3ccc4c(c3)[C@H]3[C@H](NC(=O)Nc5cc(C(F)(F)F)cc(C(F)(F)F)c5)[C@H]3O4)ccnc2N1 [Compound 1.65] | 116 |
| CN1CCC(NC(=O)N[C@@H]2[C@H]3Oc4ccc(Oc5ccnc6c5CCC(=O)N6)cc4[C@@H]23)CC1 [Compound 1.68] | 20 |
| O=C1CCc2c(Oc3ccc4c(c3)[C@H]3[C@H](NC(=O)NC5CC5)[C@H]3O4)ccnc2N1 [Compound 1.69] | 30 |
| O=C1CCc2c(Oc3ccc4c(c3)[C@@H]3[C@@H](NC(=O)Nc5cc(C(F)(F)F)ccn5)[C@@H]3O4)ccnc2N1 [Compound 1.72] | 1.9 |
| CCN1CCN(Cc2ccc(NC(=O)N[C@@H]3[C@H]4Oc5ccc(Oc6ccnc7c6CCC(=O)N7)cc5[C@@H]34)cc2F)CC1 [Compound 1.74] | 821 |
| CCCCCCCCCCNC(=O)N[C@@H]1[C@H]2Oc3ccc(Oc4ccnc5c4CCC(=O)N5)cc3[C@@H]12 [Compound 1.85] | 129 |
